What all share (type): cell-based
In data set [1] the test system is recombinant NL4-3 virus (nef section replaced with Renilla luciferase gene) in MT-2 cells. Put plainly: HIV cell culture assay (antiviral activity, luciferase readout). A digest of the protocol:
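Reporter virus is produced in 293T cells and its titer set in MT-2 cells by luciferase activity. MT-2 cells are then infected in the presence of serially diluted compound for 4-5 days. Luciferase is quantified and EC50 fitted to the median effect equation.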

The subject of another data set is uninfected MT2 cells. Put plainly: Compound cytotoxicity, XTT-based colorimetric assay. Particulars: uninfected MT2 cells, day 4, XTT. The gist of the method:
(§1)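 Uninfected MT2 cells were treated with compound under the same protocol as the antiviral assay. Viability was read on day 4 with an XTT colorimetric assay, from which CC50 values were derived.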

Assay in data set [2]: as above
As to conditions: human; uninfected MT2 cells, day 4, XTT; read-out: CC50. A digest of the protocol:
as §1

Setting [3] is: Renilla, NL43, MT-2 cells infected for 4-5 days with recombinant NL4-3 Renilla luciferase virus.

Some results are limits rather than exact numbers.

Regarding `Cc1cc(C2(F)CCC(F)(F)CC2)nc2nc([C@H](Cc3cc(F)cc(F)c3)NC(=O)Cn3nc(C(F)F)c4c3C(F)(F)[C@@H]3C[C@H]43)n(-c3ccc(Cl)c4c(NS(C)(=O)=O)nn(C[C@@H](C)N5C[C@H](F)C[C@H](F)C5)c34)c(=O)c12` (atropisomer, axis not shown; (P)) [Example 703, N-[(1S)-1-[(3P)-3-{4-chloro-1-[(2S)-2-[(3R,5S)-3,5-difluoropiperidin-1-yl]propyl]-3-methanesulfonamido-1H-indazol-7-yl}-5-methyl-4-oxo-7-(1,4,4-trifluorocyclohexyl)-3H,4H-pyrido[2,3-d]pyrimidin-2-yl]-2-(3,5-difluorophenyl)ethyl]-2-[(2S,4R)-9-(difluoromethyl)-5,5-difluoro-7,8-diazatricyclo[4.3.0.0^2,^4]nona-1(6),8-dien-7-yl]acetamide], the EC50 in data set [1] (MT-2 cells infected for 4-5 days with recombinant NL4-3 Renilla luciferase virus) was 0.017 nM. For the same compound, the CC50 in the data set on uninfected MT2 cells is > 20 nM.
With `Cc1cc(C2CCC(F)(F)CC2)nc2nc([C@H](Cc3cc(F)cc(F)c3)NC(=O)Cn3nc(C(F)F)c4c3C(F)(F)[C@@H]3C[C@H]43)n(-c3ccc(Cl)c4c(NS(C)(=O)=O)nn(CCN5CCC(F)CC5)c34)c(=O)c12` (atropisomer, axis not shown; (P)) [Example 270, N-[(1S)-1-[(3P)-3-{4-chloro-1-[2-(4-fluoropiperidin-1-yl)ethyl]-3-methanesulfonamido-1H-indazol-7-yl}-7-(4,4-difluorocyclohexyl)-5-methyl-4-oxo-3H,4H-pyrido[2,3-d]pyrimidin-2-yl]-2-(3,5-difluorophenyl)ethyl]-2-[(2S,4R)-9-(difluoromethyl)-5,5-difluoro-7,8-diazatricyclo[4.3.0.0^2,^4]nona-1(6),8-dien-7-yl]acetamide], the EC50 in data set [1] (setting [3]) was 0.011 nM. Besides, in data set [2], the CC50 at 4 days is > 50 nM.
As for `CS(=O)(=O)Nc1nn(CCN2CCC(F)(C(F)(F)F)C2)c2c(-n3c([C@H](Cc4cc(F)cc(F)c4)NC(=O)Cn4nc(C(F)F)c5c4C(F)(F)[C@@H]4C[C@H]54)nc4nc(C5CCC(F)(F)CC5)ccc4c3=O)ccc(Cl)c12` (stereo partly drawn) [Example 191, N-[(1S)-1-[(3P)-3-(4-chloro-1-{2-[3-fluoro-3-(trifluoromethyl)pyrrolidin-1-yl]ethyl}-3-methanesulfonamido-1H-indazol-7-yl)-7-(4,4-difluorocyclohexyl)-4-oxo-3H,4H-pyrido[2,3-d]pyrimidin-2-yl]-2-(3,5-difluorophenyl)ethyl]-2-[(2S,4R)-9-(difluoromethyl)-5,5-difluoro-7,8-diazatricyclo[4.3.0.0^2,^4]nona-1(6),8-dien-7-yl]acetamide], in data set [1] (setting [3]), the EC50 was determined as 0.024 nM. Also, in data set [2], the CC50 at 4 days was > 50 nM.
Turning to `COCCCn1nc(NS(C)(=O)=O)c2c(Cl)ccc(-n3c([C@H](Cc4cc(F)cc(F)c4)NC(=O)Cn4nc(C(F)F)c5c4C(F)(F)[C@@H]4C[C@H]54)nc4nc(C5(F)CCC(F)(F)CC5)cc(C)c4c3=O)c21` (atropisomer, axis not shown; (P)) [Example 553, N-[(1S)-1-[(3P)-3-[4-chloro-3-methanesulfonamido-1-(3-methoxypropyl)-1H-indazol-7-yl]-5-methyl-4-oxo-7-(1,4,4-trifluorocyclohexyl)-3H,4H-pyrido[2,3-d]pyrimidin-2-yl]-2-(3,5-difluorophenyl)ethyl]-2-[(2S,4R)-9-(difluoromethyl)-5,5-difluoro-7,8-diazatricyclo[4.3.0.0^2,^4]nona-1(6),8-dien-7-yl]acetamide], the EC50 in data set [1] (setting [3]) was 0.024 nM. For the same compound, in data set [2], the CC50 at 4 days is > 20 nM.
In the case of `Cc1cc(C2CCC(F)(F)CC2)nc2nc([C@H](Cc3cc(F)cc(F)c3)NC(=O)Cn3nc(C4CC4)c4c3C[C@@H]3C[C@H]43)n(-c3ccc(Cl)c4c(NS(C)(=O)=O)nn([C@H](C)C(=O)N5C[C@@H](C)O[C@@H](C)C5)c34)c(=O)c12` (relative stereo) [Example 679, N-[(1S)-1-[(3P)-3-{4-chloro-1-[(2R)-1-[(2R,6S)-2,6-dimethylmorpholin-4-yl]-1-oxopropan-2-yl]-3-methanesulfonamido-1H-indazol-7-yl}-7-(4,4-difluorocyclohexyl)-5-methyl-4-oxo-3H,4H-pyrido[2,3-d]pyrimidin-2-yl]-2-(3,5-difluorophenyl)ethyl]-2-[(2R*,4R*)-9-cyclopropyl-7,8-diazatricyclo[4.3.0.0^2,^4]nona-1(6),8-dien-7-yl]acetamide], the EC50 in data set [1] (setting [3]) was 0.012 nM. For the same compound, the CC50 at 4 days in data set [2] is > 20 nM.
For `COCCOCCn1nc(NS(C)(=O)=O)c2c(Cl)ccc(-n3c([C@H](Cc4cc(F)cc(F)c4)NC(=O)Cn4nc(C5CC5)c5c4C[C@@H]4C[C@H]54)nc4nc(C5CCC(F)(F)CC5)ccc4c3=O)c21` (atropisomer, axis not shown; (P)) [Example 237, N-[(1S)-1-[(3P)-3-{4-chloro-3-methanesulfonamido-1-[2-(2-methoxyethoxy)ethyl]-1H-indazol-7-yl}-7-(4,4-difluorocyclohexyl)-4-oxo-3H,4H-pyrido[2,3-d]pyrimidin-2-yl]-2-(3,5-difluorophenyl)ethyl]-2-[(2S,4S)-9-cyclopropyl-7,8-diazatricyclo[4.3.0.0^2,^4]nona-1(6),8-dien-7-yl]acetamide], the EC50 in data set [1] (setting [3]) came out at 0.006 nM. Besides, in data set [2], the CC50 at 4 days was > 50 nM.
Regarding `Cc1cc(C2(F)CCC(F)(F)CC2)nc2nc([C@H](Cc3cc(F)cc(F)c3)NC(=O)Cn3nc(C(F)F)c4c3C[C@@H]3C[C@H]43)n(-c3ccc(Cl)c4c(NS(C)(=O)=O)nn(CCN5C[C@@H](C)O[C@@H](C)C5)c34)c(=O)c12` (atropisomer, axis not shown; (P)) [Example 596, N-[(1S)-1-[(3P)-3-(4-chloro-1-{2-[(2R,6S)-2,6-dimethylmorpholin-4-yl]ethyl}-3-methanesulfonamido-1H-indazol-7-yl)-5-methyl-4-oxo-7-(1,4,4-trifluorocyclohexyl)-3H,4H-pyrido[2,3-d]pyrimidin-2-yl]-2-(3,5-difluorophenyl)ethyl]-2-[(2S,4S)-9-(difluoromethyl)-7,8-diazatricyclo[4.3.0.0^2,^4]nona-1(6),8-dien-7-yl]acetamide], the EC50 in data set [1] (setting [3]) came out at 0.029 nM. For the same compound, the CC50 at 4 days in data set [2] is > 20 nM.
With `CC(C)S(=O)(=O)N1CCN(CCn2nc(NS(C)(=O)=O)c3c(Cl)ccc(-n4c([C@H](Cc5cc(F)cc(F)c5)NC(=O)Cn5nc(C(F)F)c6c5C(F)(F)[C@@H]5C[C@H]65)nc5nc(C6CCC(F)(F)CC6)ccc5c4=O)c32)CC1` (atropisomer, axis not shown; (P)) [Example 195, N-[(1S)-1-[(3P)-3-(4-chloro-3-methanesulfonamido-1-{2-[4-(propane-2-sulfonyl)piperazin-1-yl]ethyl}-1H-indazol-7-yl)-7-(4,4-difluorocyclohexyl)-4-oxo-3H,4H-pyrido[2,3-d]pyrimidin-2-yl]-2-(3,5-difluorophenyl)ethyl]-2-[(2S,4R)-9-(difluoromethyl)-5,5-difluoro-7,8-diazatricyclo[4.3.0.0^2,^4]nona-1(6),8-dien-7-yl]acetamide], in data set [1] (setting [3]), the EC50 came out at 0.037 nM. Moreover, in data set [2], the cytotoxic concentration (CC50) at 4 days is > 50 nM.
